Test results from patent US12438175B2, “Aqueous organic-based electrolyte for redox flow battery” (KEMIWATT, priority 2019, dated 2025).
≈ marks a conversion by molar mass, not a printed value.

Columns and labels:
[1] = type: physicochemical; conditions: pH 13.5
Description: Post-cycling analyses were carried out using ^1H NMR spectroscopy electrolytes. […] Taking into account the electrolyte-membrane contact time during this cycling test and the NMR spectroscopy resolution, the permeability coefficient of compound D4CH can be estimated below 10^−12 cm^2/s or less than 1% capacity loss per year of electrolyte-membrane contact.
Post-cycling analyses were carried out using ^1H NMR spectroscopy electrolytes. […] Taking into account the electrolyte-membrane contact time during this cycling test and the NMR spectroscopy resolution, the permeability coefficient of compound M4SH can be estimated below 10^−12 cm^2/s or less than 1% capacity loss per year of electrolyte-membrane contact.

[2] = Cyclic voltammetry / linear sweep voltammetry, electrochemical parameters; type: physicochemical; conditions: for Peak-to-peak separation ΔEp: 100 mV/s, third cycle; for E^0′ apparent standard redox potential / E1/2 half-wave potential: 5 mM, pH 14, 1 M KOH; for E1/2 half-wave potential: RDE; for k^0′O × 10^−2 apparent heterogeneous rate constant: Gileadi's equation; for DO × 10^−6 diffusion coefficient: Randles-Sevcik
Description: Cyclic voltammetry experiments were performed at a 100 mV/s scan rate for compounds M3CH, D3CH, D4CH, M3SH, D3SH, M4SH and D4SH in solution at pH 13 (KOH 0.1 M) or pH 14 (KOH 1 M).
The electrochemical experiments were conducted on an electrochemical working station (BioLogic Science Instruments VSP) at 25° C. using a three-electrodes electrochemical cell, where a Pt wire was employed at the counter electrode (CE), an Ag/AgCl/KCl saturated electrode immerged in a 1 M KOH solution protected from the cell by a porous frit glass served as the reference electrode (RE) and a rotating disc electrode (RDE) mounted with a glassy carbon (GC, 7.069 mm^2) disk was used as the working electrode (WE), respectively. The potential was reported relative to the normal hydrogen electrode (NHE), which was converted from the Ag/AgCl reference electrode (0.230 V versus NHE). The ohmic drop between the WE and RE is determined by current interrupt experiments and leads to a value close to 0.7069 Ω·cm^2. All cyclic voltammetry experiments were conducted by alleviating most of this resistance (85%) using the potentiostat manual ohmic drop compensation. Before each electrochemical measurement, the GC disk electrode was polished using SiC P4000 foil.
Each recorded cyclic voltammetry of the reduction and the oxidation process of a compound at a given scan rate is analyzed by measuring ip,a=anodic peak current; ip,c=cathodic peak current; v=scan rate; Ep,a=anodic peak potential; Ep,c=cathodic peak potential; ΔEp=Ep,a−Ep,c; the apparent standard redox potential E^0′=[…].
Linear sweep voltammetry (LSV) using the RDE at various rotation speed (400 up to 1 000 RPM) were performed to determine the averaged half-wave potential E1/2.
The oxidation (DO) and the reduction (DR) diffusion coefficients were calculated using Randles-Sevcik (RS) equation ip=0.4463·n^3/2·F^3/2·A·C·v^1/2·D^1/2·R^−1/2·T^−1/2=Cye·v^1/2·D^1/2, n=number of electrons exchanged during the redox process; F=faradaic number=96485 C·mol^−1; A=electrode active surface; C=redox active molecule concentration; R=gas constant=8.314 J·K^−1·mol^−1; T=bulk temperature=299 K. The experiments are conducted by cyclic voltammetry at various scan rates ranging from 10 mV/s up to 20 V/s.
A graphic of lip,al and lip,cl=f(Cte×v^1/2) is plotted, if the redox process is reversible and diffusion controlled, the peak current should be proportional to the square root of the scan rate. The diffusion coefficients (oxidation and reduction) are then calculated by taking the square of the regression lines slopes. Diffusion coefficients (oxidation and reduction processes) are evaluated by plotting the peak current versus a constant multiplied by the square root of the scan rate. The plots regression line gives a straight line with perfect correlation coefficient (100%) confirming that the redox process is reversible and diffusion controlled. The square of each slope gives the associated coefficient diffusion in cm^2 s^−1.
The apparent heterogeneous rate constant during oxidation (k^0′O)/and reduction (k^0′R) process was calculated using Gileadi's equation (C. Rüssel, W. Jaenicke, Electrochimica Acta, Vol 27, N° 12, 1745-1750, 1982) log k^0′=−0.48α+0.52 +log[(nFαvcD)/(2.303RT)]^1/2; vc is the critical scan rate, it is calculated by plotting the peak potentials versus the logarithm of the scan rates, and is more precise when a very wide range of scan rates is used, which is the case here (0.010 up to 20 V·s^−1), it is determined at the x-axis of the point of intersection of the regression lines drawn at low and high scan rates; a is the transfer coefficient that is supposed to be close to 0.5 for all presented compounds.
Peak-to-peak separation ΔEp values were determined from the third cycle of each cyclic voltammogram (FIGS. 1 and 2) and are gathered in the following table 4.
The standard redox process reversibility evaluation is performed in diluted state, at 5 mM of concentration, at pH 14 buffered with 1 M of KOH. […]

[3] = Cycling tests of redox flow battery cells in galvanostatic mode; conditions: Test 1: 0.5 M M3CH, pH 13.0
Description: General procedure: Cell tests were carried out on a BCS-815 battery cycler (Biologic) at room temperature. The redox flow battery cell was composed of an Aquivion® membrane (E98-09S Solvay) with an 80 μm thickness serving as separator sandwiched between two GFD porous graphite felts (SGL Carbon group, GFD 4.6 EA), 4.6 mm thick with an active area of 5 or 25 cm^2. The electrodes were inserted into 3 mm PVC frames surrounded by EPDM gaskets. The current collectors were made of graphite composite material provided by SGL and the assembly was compressed by two PVC end-plates. […]
Capacity utilization was calculated by determining the ratio of the discharge capacity to the theoretical capacity available in the electrolytes. Coulombic efficiency was calculated by determining the ratio of the discharge capacity to the charge capacity. Energy efficiency was calculated by determining the ratio of the discharge energy to the charge energy. The energy density was calculated by determining the ratio of the discharge energy to the total volume of posolyte (positive electrolyte) and negolyte (negative electrolyte). […]
At the end of charge, a rest of 24 hours at ocv was added before each discharge, allowing to quantify the self-discharge of this system in conditions close to its future application.

[4] = Degradation study by 1H NMR of electrolyte heated at 40° C.; type: physicochemical
Description: This study consists of NMR ^1H measurements of an electrolyte heated at 40° C. and kept under stirring at 300 RPM using a magnetic stirrer.
Such behavior was detailed in the literature (WO 2019/157437) and is characteristic of a nucleophilic attack i.e. of OH^− in strong alkaline environment causing the functionalized arm to be cleaved.

[5] = Solubility in aqueous solution at various pH by shake-flask method; conditions: thermodynamic from solid
Description: An aqueous solution (containing either KCl 1M, KOH 1M or H2SO4 1M) is added over 100 mg of compound by 20 μL portions until complete solubilization. We obtain an approximate range of solubility values calculated as following:
Smax˜(m/M)/V; m=mass of evaluated compound (g); M=molar mass of evaluated compound (g·mol^−1); V=added volume (L).

[6] = Cycling tests of redox flow battery cells in constant power cycling mode; conditions: extrapolated from 5 days; flowrate 0.5 mL/min/cm^2; negolyte 120/120/40/370 mL

SMILES: O=C(O)CCCCOc1ccc(OCCCCC(=O)O)c2c1C(=O)c1ccccc1C2=O [Compound D4CH]
- Solubility, solution at pH 0 (H2SO4 1M) (pH 0): 0.00 M
- Solubility, solution at pH 14 (KOH 1M): 0.46 M
- compound degradation in negolyte after cycling [1]: No traces of compound D4CH degradation were visible
- Peak-to-peak separation ΔEp ([2]; pH 13 (KOH 0.1 M)): 328 mV
- Peak-to-peak separation ΔEp ([2]; pH 14 (KOH 1 M)): 32 mV

SMILES: O=C1c2ccccc2C(=O)c2c(OCCCCS(=O)(=O)O)ccc(O)c21 [Compound M4SH]
- Solubility, solution at pH 14 (KOH 1M): 0.46 M
- compound degradation in negolyte after cycling [1]: no traces of compound M4SH degradation were visible
- E^0′ apparent standard redox potential [2]: −0.494 V vs NHE
- E1/2 half-wave potential [2]: −0.494 V vs NHE
- k^0′O × 10^−2 apparent heterogeneous rate constant [2]: 3.1 × 10^−2 cm/s
- DO × 10^−6 diffusion coefficient [2]: 5.8 × 10^−6 cm^2/s
- Peak-to-peak separation ΔEp ([2]; pH 13 (KOH 0.1 M)): 97 mV
- Peak-to-peak separation ΔEp ([2]; pH 14 (KOH 1 M)): 39 mV

SMILES: O=C(O)CCCOc1ccc(O)c2c1C(=O)c1ccccc1C2=O [Compound M3CH]
- solubility over state-of-charge [3]: soluble at every state-of-charge
- degradation rate ([4]; 0.05 M, pH 13.9, 40° C.): roughly 15 % per month
- degradation after a month ([4]; 0.4 M, pH 13.5, 0.8 M KOH, 0.3 M NaOH, 40° C.): did not undergo any degradation
- solubility ([5]; aqueous H2SO4 1M solution, pH 0, aqueous buffer): 310 mM (≈ 101 mg/mL)
- solubility ([5]; aqueous KOH 1M solution, pH 14, aqueous buffer): 530 mM (≈ 173 mg/mL)
- E^0′ apparent standard redox potential [2]: −0.484 V vs NHE
- E1/2 half-wave potential [2]: −0.484 V vs NHE
- k^0′O × 10^−2 apparent heterogeneous rate constant [2]: 2.3 × 10^−2 cm/s
- DO × 10^−6 diffusion coefficient [2]: 5.2 × 10^−6 cm^2/s
- Peak-to-peak separation ΔEp ([2]; pH 13 (KOH 0.1 M)): 140 mV
- Peak-to-peak separation ΔEp ([2]; pH 14 (KOH 1 M)): 31 mV
- Stability in cycles (−20%) [6]: 28449 cycles
- Stability in days (−20%) [6]: 10942.1 days
